The source of these data is patent US12539301B2, “Compound external preparation for treating alopecia areata and preparation method therefor” (CHANGSHA JINGYI PHARMACEUTICAL TECHNOLOGY CO., LTD, priority 2020, dated 2026).

The nature of data set [1]: Solubility and storage stability (crystallization) of tofacitinib in gels and liniments with and without minoxidil. The class given is physicochemical. To be noted: in water and an organic solvent, gel kept stable.
Protocol: (1) Different proportions of tofacitinib were set, a mixture of water and an organic solvent was used as a mixed solvent, and a single gel and a compound gel, and a single liniment and a compound liniment were prepared for comparatively investigating dissolved states of tofacitinib in the preparations with and without addition of minoxidil. The samples were stored at the room temperature for 1 month after the preparations were prepared, and stability of tofacitinib was evaluated by whether crystallization occurred or not during the storage.
(2) For an unstable preparation which is easy to precipitate tofacitinib crystals during the storage, adjustments were made by adding an organic solvent component, a surfactant, a crystallization inhibitor, or a thickening agent, increasing an amount of minoxidil, for comparatively investigating improvement of the stability of tofacitinib in the preparations with the above methods.
Solubility: (∘: incompletely soluble; √: completely soluble); and stability: (x: crystallization and precipitation; √: non-crystallization) […]
Data set [2] is classed as physicochemical. The conditions noted are these: for Dissolution condition: 100 parts per 1 part API, 30 min, heating (60° C.), after cooling. From the text: Dissolution condition and dissolution required for quantifying the API in a quantitive solvent were used as preliminary evaluation indexes, and a solvent capable of dissolving both active ingredients is preferred. Icon meaning: x: insoluble (this system is a white opaque suspension with visible white solid particles); ∘: incompletely soluble (this system is partially transparent, with white visible bulk solids or suspended solids); √ completely soluble (the system is a completely transparent solution, without suspended substances and solid insoluble substances); and /: not investigated.

Counter-ions that a name gives are not always drawn. Like-named read-outs stand apart in the source and are kept apart here.

On to `C[C@@H]1CCN(C(=O)CC#N)C[C@@H]1N(C)c1ncnc2[nH]ccc12` [Tofacitinib citrate], for which, in data set [1], the “Amount of tofacitinib (calculated by the prototype) dissolved by minoxidil” value is 0.05-1.0 times the amount of minoxidil. Further, the “Solubility in single solvents (in words)” value in data set [2] is “poor solubility”. Besides, the Dissolution condition entry in data set [2] (Example 16-b: Propylene glycol:water = 1:9 (w/w)), in data set [2] (Example 16-c: Propylene glycol:water = 3:7 (w/w)), in data set [2] (Example 16-d: Propylene glycol:water = 5:5 (w/w)), in data set [2] (Example 16-e: Propylene glycol:water = 7:3 (w/w)), in data set [2] (Example 16-f: Propylene glycol:water = 9:1 (w/w)) and in data set [2] (Example 17: Propylene glycol:water:ethanol = 5:2:3 (w/w)) was “✓” throughout.
